“Also recorded” adds a separate entry of the source.
Experiments:
Format in all cases: cell-based, pig
[1] = tested on: 5-hydroxymethylcytosine (5hmC); test: Immunofluorescence analysis of 5hmC in Sertoli cells (SCs) of prepubertal pigs; conditions: 48 hours plus 24 of recovery, compared to untreated SCs
Description: (§1) The animal studies were conducted in accordance with national guidelines (approved Italian animal protection certification A-3143-01) and guidelines of the Committee for the Care and Use of Animals of the University of Perugia. The experimental protocols were approved by the University of Perugia. The newborn prepubertal “Large White” pigs (Farm “Trequattrini”, S. Elena di Marsciano, PG), aged 7-15 days, were used as SC donors. The SCs were isolated in accordance with previously established methods, modified in our laboratory (Luca et al., 2015).
(§2) The SCs were maintained at 37° C. and 5% CO2 in HAMF-12 (Euroclone, MI, Italy) supplemented with 0.166 nM of retinoic acid (Sigma-Aldrich, St. Louis, MO, USA) and 5 mL/500 ml of ITS (Becton Dickinson cat. no. 354352, NJ, USA) in the absence (untreated) or presence of chemotherapeutic drugs for 48 hours plus 24 of recovery at the following concentrations: • Cisplatin 0.33 μM, 1.66 μM and 3.33 μM; • 4-hydroperoxycyclophosphamide (40HP) 50 and 100 μM; • Doxorubicin 0.1 μM, 0.2 μM and 1 μM; • cisplatin 3.33 μM plus EPA 100 μM; • cisplatin 3.33 μM plus 5-aza-2′-deoxy-cytidine (5 AZA) 1 μM.
The untreated SCs and SCs treated with chemotherapeutic drugs (plus EPA or without EPA), were made to grow on round slides pre-treated with gelatine (Sigma-Aldrich). At the end of the treatment, the SCs were fixed for 30 min in 4% paraformaldehyde in phosphate buffer (PBS). Prior to immunolabelling, the cells were subjected to permeabilization (PBS, 0.2% Triton X) for 5 min at room temperature, blocked in 0.5% bovine serum albumin (BSA; Sigma-Aldrich, St. Louis, MO) in PBS for 10 min, and then exposed to the primary anti-5hmC antibody (Santa Cruz Biotechnology, 1:100 in PBS) overnight at 4° C. The cells were washed three times in PBS for 5 min and then exposed to the secondary Alexa-488 labelled antibody (1:500 in PBS). The cells were counterstained with 4′,6-diamidino-2-phenylindole (DAPI) for 1 min after treatment with RNase (10 mg/mL per 10 min.). The negative control for the immunolabelling consisted in skipping the labelling with the primary antibody and passing directly to the secondary antibody. The slides were then mounted with ProLong® Gold Antifade (ThermoFisher) and the images were acquired with an Olympus BX-41 equipped with Cell-F image processing software (Olympus).

[2] = tested on: GDNF; test: Real-time PCR analysis of GDNF gene expression in SCs of prepubertal pigs; conditions: for gene expression of GDNF, real-time PCR: 48 hours plus 24 of recovery, compared to untreated SCs
Description: as §1, §2
Total RNA was isolated from the monolayers of untreated SCs and SCs treated with chemotherapeutic drugs (plus EPA or without EPA) by means of an RNA purification kit (Versagene RNA Cell Kit, Gentra Systems, Minneapolis, MN) and quantified by reading the optical density at 260 nm. Subsequently, 1 μg of total RNA was subjected to RT in a final volume of 20 μl by means of the Maxima First Strand cDNA Synthesis kit (Thermo Scientific, MA, USA). Real-time PCR was performed using 16 ng of cDNA, prepared from the RT reaction, and SYBR Green (Stratagene, Amsterdam, Netherlands). Real-time PCR was performed with an Mx3000P cycler (Stratagene) using FAM for detection and ROX as the reference dye. The level of mRNA for each sample was normalised with respect to the mRNA of β-actin and expressed as a change compared to the level of the untreated control cells.

[3] = tested on: GDNF; test: Western blotting and densitometric analysis of GDNF protein expression in SCs of prepubertal pigs; conditions: 48 hours plus 24 of recovery, compared to untreated SCs
Description: as §1, §2
The SCs were maintained at 37° C. and 5% CO2 in HAMF-12 (Euroclone, MI, Italia) supplemented with 0.166 nM of retinoic acid (Sigma-Aldrich, St. Louis, MO, USA) and 5 mL/500 ml of ITS (Becton Dickinson cat. no. 354352, NJ, USA) in the absence (untreated) or presence of cisplatin 0.5 and 1 μg/ml for 48 hours plus 24 of recovery plus 100 μM EPA.
The SCs were cultured at 37° C. and 5% CO2 in HAMF-12 (Euroclone, MI, Italy) supplemented with 0.166 nM of retinoic acid (Sigma-Aldrich, St. Louis, MO, USA) and 5 mL/500 ml of ITS (Becton Dickinson cat. no. 354352, NJ, USA) in the absence (untreated) or presence of cisplatin 0.5 and 1 μg/ml for 48 hours plus 24 of recovery and with the addition of 100 μM EPA. […] The images were acquired by means of the VersaDoc Imaging System (Bio-Rad Hercules, CA, USA), and the respective signals were quantified using Quantity One software (Bio-Rad) 2.8.

[4] = SCs treated with doxorubicin 0.1, 0.2 and 1 μM
[5] = SCs treated with cisplatin 0.33, 1.66 and 3.33 μM
[6] = SCs treated with 4-hydroperoxycyclophosphamide 50 and 100 μM

COc1cccc2c1C(=O)c1c(O)c3c(c(O)c1C2=O)C[C@@](O)(C(=O)CO)C[C@@H]3O[C@H]1C[C@H](N)[C@H](O)[C@H](C)O1 [doxorubicin]
5-hydroxymethylcytosine (5hmC), immunofluorescence analysis [1, 4]: progressive reduction; also recorded: significant reduction
gene expression of GDNF, real-time PCR [2, 4]: significant reduction
protein expression of GDNF, western blotting [3, 4]: significant reduction

Nc1ncn([C@H]2C[C@H](O)[C@@H](CO)O2)c(=O)n1 [AZA, 5-aza-2′-deoxycytidine]
recovery in the expression of GDNF ([2]; SCs treated with cisplatin 3.33 μM plus 5 AZA 1 μM, compared with EPA treatment): comparable to the one induced by treatment with the fatty acid EPA; also recorded: recovery comparable to that induced by treatment with the fatty acid

N.N.[Cl][Pt][Cl] [Cisplatin]
5-hydroxymethylcytosine (5hmC), immunofluorescence analysis [1, 5]: significant reduction
5-hydroxymethylcytosine (5hmC), immunofluorescence analysis ([1]; SCs treated with cisplatin 0.33, 1.66 and 3.33 μM, listed as cisplatin): progressive reduction
gene expression of GDNF, real-time PCR [2, 5]: significant reduction
protein expression of GDNF, western blotting [3, 5]: significant reduction

O=P1(N(CCCl)CCCl)NC(OO)CCO1 (stereo not drawn) [4-hydroperoxycyclophosphamide]
5-hydroxymethylcytosine (5hmC), immunofluorescence analysis [1, 6]: significant reduction
5-hydroxymethylcytosine (5hmC), immunofluorescence analysis ([1]; SCs treated with 4-hydroperoxycyclophosphamide 50 and 100 μM, listed as 4OHP): progressive reduction
gene expression of GDNF, real-time PCR [2, 6]: significant reduction
protein expression of GDNF, western blotting [3, 6]: significant reduction

From US20240000740A1, “OMEGA-3 POLYUNSATURATED FATTY ACIDS FOR TREATING / PREVENTING MALE INFERTILITY IN PREPUBERTAL CANDIDATES FOR GONADOTOXIC THERAPIES” (UNIVERSITA' DEGLI STUDI DI PERUGIA, priority 2020, published 2024)
